Measurements as given in US11878975B2, “Substituted indole compounds useful as TLR inhibitors” (BRISTOL-MYERS SQUIBB COMPANY, priority 2017, dated 2024).

How the values were obtained:
Format in all cases: cell-based
human TLR9 = molecular target: T1, human TLR9 (Homo sapiens, UniProt Q9NR96); test: TLR9 inhibition reporter assay (HEK-Blue cells, SEAP reporter, ODN2006 stimulation); conditions: HEK-Blue cells overexpressing human TLR9, SEAP reporter, ODN2006 5 nM
T1 construct: host or cells: HEK-Blue cells
T1 sequence (Q9NR96 26-1032): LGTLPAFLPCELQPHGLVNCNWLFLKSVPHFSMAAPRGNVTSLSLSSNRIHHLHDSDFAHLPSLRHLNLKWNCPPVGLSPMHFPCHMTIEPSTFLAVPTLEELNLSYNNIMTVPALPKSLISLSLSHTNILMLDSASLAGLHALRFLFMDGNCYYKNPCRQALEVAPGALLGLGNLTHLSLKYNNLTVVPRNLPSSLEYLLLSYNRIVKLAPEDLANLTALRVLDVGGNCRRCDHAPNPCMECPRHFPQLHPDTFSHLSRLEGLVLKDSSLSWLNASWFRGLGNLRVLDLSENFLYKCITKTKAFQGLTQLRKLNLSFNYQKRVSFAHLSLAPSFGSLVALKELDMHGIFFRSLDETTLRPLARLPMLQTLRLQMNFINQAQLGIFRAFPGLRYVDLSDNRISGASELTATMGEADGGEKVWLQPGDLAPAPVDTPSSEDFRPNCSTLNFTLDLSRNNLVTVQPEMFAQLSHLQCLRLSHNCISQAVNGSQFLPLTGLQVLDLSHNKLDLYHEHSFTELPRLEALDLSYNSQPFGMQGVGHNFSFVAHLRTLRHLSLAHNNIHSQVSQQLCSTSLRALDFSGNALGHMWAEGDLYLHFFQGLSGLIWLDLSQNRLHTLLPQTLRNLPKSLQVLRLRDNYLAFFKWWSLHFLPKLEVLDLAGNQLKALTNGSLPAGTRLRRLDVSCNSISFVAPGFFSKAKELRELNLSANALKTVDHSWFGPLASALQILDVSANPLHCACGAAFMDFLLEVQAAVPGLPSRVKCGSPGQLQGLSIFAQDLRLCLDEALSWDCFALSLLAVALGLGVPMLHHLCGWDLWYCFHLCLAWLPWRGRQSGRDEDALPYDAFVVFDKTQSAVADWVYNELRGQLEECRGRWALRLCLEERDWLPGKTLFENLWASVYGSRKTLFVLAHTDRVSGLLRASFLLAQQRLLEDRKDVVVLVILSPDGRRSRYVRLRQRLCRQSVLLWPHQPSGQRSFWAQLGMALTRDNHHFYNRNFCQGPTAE
Summary of the method: (§1)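 SEAP readout after 22 h agonist exposure at 37 °C; final agonist levels were 7.5 μM gardiquimod (TLR7), 15.9 μM R848 (TLR8) and 5 nM ODN2006 (TLR9). Inhibitors, spanning 0.05 nM to 50 μM final, were applied 30 min beforehand.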

human TLR7 = molecular target: T2, human TLR7 (Homo sapiens, UniProt Q9NYK1); test: TLR7 inhibition reporter assay (HEK-Blue cells, SEAP reporter, gardiquimod stimulation); conditions: HEK-Blue cells overexpressing human TLR7, SEAP reporter, gardiquimod 7.5 μM
T2 construct: host or cells: HEK-Blue cells
T2 sequence (Q9NYK1 27-1049): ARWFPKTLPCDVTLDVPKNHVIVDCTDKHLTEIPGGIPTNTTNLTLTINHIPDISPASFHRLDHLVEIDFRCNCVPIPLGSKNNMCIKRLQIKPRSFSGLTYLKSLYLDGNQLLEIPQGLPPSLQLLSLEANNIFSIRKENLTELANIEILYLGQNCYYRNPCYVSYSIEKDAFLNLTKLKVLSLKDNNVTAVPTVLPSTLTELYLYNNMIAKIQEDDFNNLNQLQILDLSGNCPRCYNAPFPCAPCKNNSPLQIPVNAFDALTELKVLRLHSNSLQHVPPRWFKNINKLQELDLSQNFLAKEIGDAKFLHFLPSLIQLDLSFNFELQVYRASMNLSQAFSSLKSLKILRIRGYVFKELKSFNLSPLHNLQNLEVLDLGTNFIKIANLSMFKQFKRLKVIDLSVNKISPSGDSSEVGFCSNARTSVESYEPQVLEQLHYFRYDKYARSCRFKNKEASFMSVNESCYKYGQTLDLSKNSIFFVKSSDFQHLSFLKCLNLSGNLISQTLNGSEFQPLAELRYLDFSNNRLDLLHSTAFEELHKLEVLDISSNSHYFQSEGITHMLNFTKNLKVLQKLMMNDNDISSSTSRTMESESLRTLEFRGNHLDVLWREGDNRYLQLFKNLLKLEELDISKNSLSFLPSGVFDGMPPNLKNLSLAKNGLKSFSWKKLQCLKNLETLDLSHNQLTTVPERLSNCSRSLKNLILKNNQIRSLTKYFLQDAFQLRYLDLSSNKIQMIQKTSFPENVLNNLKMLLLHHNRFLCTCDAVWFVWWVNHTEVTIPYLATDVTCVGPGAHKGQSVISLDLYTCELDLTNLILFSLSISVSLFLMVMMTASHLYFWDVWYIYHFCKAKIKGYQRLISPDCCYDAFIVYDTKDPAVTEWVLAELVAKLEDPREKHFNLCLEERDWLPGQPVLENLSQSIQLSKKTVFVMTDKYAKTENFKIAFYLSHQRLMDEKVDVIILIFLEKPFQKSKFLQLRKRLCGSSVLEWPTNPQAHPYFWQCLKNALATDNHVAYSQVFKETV
Summary of the method: as §1

human TLR8 = molecular target: T3, human TLR8 (Homo sapiens, UniProt Q9NR97); test: TLR8 inhibition reporter assay (HEK-Blue cells, SEAP reporter, R848 stimulation); conditions: HEK-Blue cells overexpressing human TLR8, SEAP reporter, R848 15.9 μM
T3 construct: host or cells: HEK-Blue cells
T3 sequence (Q9NR97 27-1041): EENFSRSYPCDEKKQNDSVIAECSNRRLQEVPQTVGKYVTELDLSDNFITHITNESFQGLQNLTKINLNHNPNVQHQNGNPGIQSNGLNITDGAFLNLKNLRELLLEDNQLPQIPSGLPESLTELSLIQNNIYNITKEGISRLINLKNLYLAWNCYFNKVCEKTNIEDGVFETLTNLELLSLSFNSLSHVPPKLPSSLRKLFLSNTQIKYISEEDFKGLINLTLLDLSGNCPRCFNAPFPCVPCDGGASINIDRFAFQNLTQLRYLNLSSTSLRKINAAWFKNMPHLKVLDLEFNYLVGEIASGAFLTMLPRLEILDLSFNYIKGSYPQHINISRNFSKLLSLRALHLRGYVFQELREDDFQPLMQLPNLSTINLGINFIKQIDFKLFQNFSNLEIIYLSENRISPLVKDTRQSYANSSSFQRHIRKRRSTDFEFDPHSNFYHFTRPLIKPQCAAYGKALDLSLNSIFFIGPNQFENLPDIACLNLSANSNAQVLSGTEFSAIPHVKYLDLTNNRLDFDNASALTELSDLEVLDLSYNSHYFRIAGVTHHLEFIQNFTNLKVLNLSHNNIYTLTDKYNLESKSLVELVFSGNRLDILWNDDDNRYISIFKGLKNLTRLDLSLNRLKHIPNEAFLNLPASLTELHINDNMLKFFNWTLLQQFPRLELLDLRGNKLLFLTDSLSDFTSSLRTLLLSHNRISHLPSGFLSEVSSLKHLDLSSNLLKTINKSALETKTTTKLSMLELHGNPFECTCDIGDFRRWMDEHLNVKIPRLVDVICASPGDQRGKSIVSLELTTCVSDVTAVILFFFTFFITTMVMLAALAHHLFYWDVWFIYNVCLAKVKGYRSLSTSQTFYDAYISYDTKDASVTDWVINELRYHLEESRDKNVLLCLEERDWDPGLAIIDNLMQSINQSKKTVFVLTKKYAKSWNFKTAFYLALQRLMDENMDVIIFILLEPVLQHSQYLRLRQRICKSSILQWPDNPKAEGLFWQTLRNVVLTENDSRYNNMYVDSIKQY
Summary of the method: as §1

| IC50 (human TLR9) | IC50 (human TLR7) | IC50 (human TLR8) | Compound |
| --- | --- | --- | --- |
| 742 nM | 107 nM | 16 nM | CNCCN1CCCC(c2ccc3[nH]c(-c4ccc(OC)c(OC)c4)c(C(C)C)c3c2)C1 (stereo not drawn) [Example 254, 2-(3-(2-(3,4-dimethoxyphenyl)-3-isopropyl-1H-indol-5-yl)piperidin-1-yl)-N-methylethanamine] |
| 157 nM | 19 nM | 5.2 nM | CNCCN1CCCC(c2ccc3[nH]c(-c4ccnc(C)c4)c(C(C)C)c3c2)C1 (stereo not drawn) [Example 255] |
| 611 nM | 226 nM | 3.2 nM | CNCCN1CCCC(c2ccc3[nH]c(-c4ccnc(C)c4)c(C(C)C)c3c2)C1 (stereo not drawn) [Example 256] |
| 760 nM | 0.44 nM | 1.9 nM | Cc1cc(-c2[nH]c3ccc(C4CNC4)cc3c2C(C)C)cn2ncnc12 [Example 257, 6-(5-(azetidin-3-yl)-3-isopropyl-1H-indol-2-yl)-8-methyl-[1,2,4]triazolo[1,5-a]pyridine] |
| 700 nM | 4 nM | 11 nM | Cc1cc(-c2[nH]c3ccc(C4CNC4)cc3c2C(C)C)cc(C)n1 [Example 259] |
| 5250 nM | 2 nM | 3.9 nM | CNC(=O)CN1CC(c2ccc3[nH]c(-c4cc(C)c5ncnn5c4)c(C(C)C)c3c2)C1 [Example 260, 2-(3-(3-isopropyl-2-(8-methyl-[1,2,4]triazolo[1,5-a]pyridin-6-yl)-1H-indol-5-yl)azetidin-1-yl)-N-methylacetamide] |
| 3320 nM | 4 nM | 11 nM | Cc1cc(-c2[nH]c3ccc(C4CN(CC(=O)N(C)C)C4)cc3c2C(C)C)cn2ncnc12 [Example 261] |
| 22900 nM | 618 nM | 66 nM | COc1cc(-c2[nH]c3ccc(C4CN(CC(=O)N(C)C)C4)cc3c2C(C)C)cn2ncnc12 [Example 262] |
| 3620 nM | 2 nM | 4 nM | CNC(=O)CN1CC(c2ccc3[nH]c(-c4cc(OC)c5ncnn5c4)c(C(C)C)c3c2)C1 [Example 263] |
| 8170 nM | 3 nM | 19 nM | Cc1cc(-c2[nH]c3ccc(C4CN(CCS(C)(=O)=O)C4)cc3c2C(C)C)cn2ncnc12 [Example 264] |

Continued, molecule first:

| Compound | IC50 (human TLR9) | IC50 (human TLR7) | IC50 (human TLR8) |
| --- | --- | --- | --- |
| COc1cc(-c2[nH]c3ccc(C4CCCN(C)C4)cc3c2C(C)C)cn2ncnc12 (stereo not drawn) [Example 238] | 1240 nM | 0.81 nM | 0.75 nM |
| COc1cc(-c2[nH]c3ccc(C4CCCN(C5COC5)C4)cc3c2C(C)C)cn2ncnc12 (stereo not drawn) [Example 240] | 11600 nM | 5 nM | 4.2 nM |
| COc1cc(-c2[nH]c3ccc(C4CCCN(C)C4)cc3c2C(C)C)cn2ncnc12 (stereo not drawn) [Example 241] | 1300 nM | 0.53 nM | 1.9 nM |
| COc1cc(-c2[nH]c3ccc(C4CCCN(C5COC5)C4)cc3c2C(C)C)cn2ncnc12 (stereo not drawn) [Example 242] | 25400 nM | 8 nM | 2.4 nM |
| COc1cc(-c2[nH]c3ccc(C4CCCN(C5COC5)C4)cc3c2C(C)C)cn2ncnc12 (stereo not drawn) [Example 243] | 12900 nM | 10 nM | 16 nM |
| COc1cc(-c2[nH]c3ccc(C4CCCN(C5CCOCC5)C4)cc3c2C(C)C)cn2ncnc12 (stereo not drawn) [Example 244] | 1190 nM | 4 nM | 0.69 nM |
| Cc1cc(-c2[nH]c3ccc(C4CCCN(C5CCN(C(C)C)CC5)C4)cc3c2C(C)C)cc(C)n1 (stereo not drawn) [Example 245] | 419 nM | 104 nM | 19 nM |
| Cc1cc(-c2[nH]c3ccc(C4CCCN(Cc5c[nH]c(C)n5)C4)cc3c2C(C)C)cc(C)n1 (stereo not drawn) [Example 246] | 56 nM | 10 nM | 16 nM |
| Cc1cc(-c2[nH]c3ccc(C4CCCN(Cc5c[nH]c(C)n5)C4)cc3c2C(C)C)cc(C)n1 (stereo not drawn) [Example 247] | 116 nM | 8 nM | 6.9 nM |
| COc1cc(-c2[nH]c3ccc(C4CCCN(CC(C)(C)O)C4)cc3c2C(C)C)cn2ncnc12 (stereo not drawn) [Example 248, 1-(3-(3-isopropyl-2-(8-methoxy-[1,2,4]triazolo[1,5-a]pyridin-6-yl)-1H-indol-5-yl)piperidin-1-yl)-2-methylpropan-2-ol] | 2010 nM | 0.76 nM | 2.1 nM |
| COc1cc(-c2[nH]c3ccc(C4CCCN(CC(C)(C)O)C4)cc3c2C(C)C)cn2ncnc12 (stereo not drawn) [Example 249] | 2330 nM | 2 nM | 1.2 nM |
| COCCN1CCCC(c2ccc3[nH]c(-c4cc(OC)c5ncnn5c4)c(C(C)C)c3c2)C1 (stereo not drawn) [Example 251, 6-(3-isopropyl-5-(1-(2-methoxyethyl)piperidin-3-yl)-1H-indol-2-yl)-8-methoxy-[1,2,4]triazolo[1,5-a]pyridine] | 5260 nM | 3 nM | 3.2 nM |
| COc1cc(-c2[nH]c3ccc(C4CCCN(CCS(C)(=O)=O)C4)cc3c2C(C)C)cn2ncnc12 (stereo not drawn) [Example 253] | 6220 nM | 5 nM | 4.4 nM |
